# According to patent publication US10227586B2, “Genome-originated artificial ncRNA expression library and method of preparing the same” (KOREA ADVANCED INSTITUTE OF SCIENCE AND TECHNOLOGY, priority 2016, dated 2019):
# B1: clone 7: artificial ncRNA improving resistance to cinnamaldehyde, genome insert of SEQ ID NO: 18 (nucleic acid)
# DNA: AACGCAGGGCGTTCGAAAGCAGGTTGCTTAGCGCCCGACGCAGCATCAGCGGATCGCCCGCGACCTGACACTTGTCGCCAACAAACCGCAACTCCACGCCGCGATCTTCCGCTAACGCCTCGAAAAAATCGAACACTTTGCCGACTTCATCCGCCAG
# modifications: cinnamic aldehyde_reg_06
# B2: clone 6: artificial ncRNA improving resistance to cinnamaldehyde, genome insert of SEQ ID NO: 17 (nucleic acid)
# DNA: TATTCATTGCTTCTACCCGTGCCTCGCTTTCTGTATTACGAAATTGTCCCAACACATGTGCCAGCCGATAAAAACCCAC
# modifications: expressed or natural sequence
# Columns and labels:
# E. coli YHP05 = experiment: Screening of transformed E. coli living in cinnamaldehyde MIC (artificial ncRNA expression); type: cell-based; details: transformed E. coli YHP05, LB medium comprising 350 ug/ml cinnamaldehyde, 1 mM IPTG, 16 hrs
# Procedure: In order to develop an artificial ncRNA to make E. coli survived at 300 ug/ml of cinnamaldehyde concentration, E. coli YHP05 was transformed by the plasmid library which can express genome-originated artificial ncRNA constructed in the Example 3-5, and after transformed ˜500,000 colonies were cultured for 16 hrs, they were diluted to 1:100 and cultured for 16 hrs again in a LB medium comprising 350 ug/ml cinnamaldehyde, 1 mM IPTG, and the result was shown in FIG. 6 and table 6.
# E. coli YHP05 strain = experiment: MIC measurement to cinnamaldehyde of E. coli; type: cell-based; details: LB liquid medium, 37° C., 16 hrs
# E. coli MG1655 strain = experiment: microbe, parasite or virus in culture; details: Escherichia coli, MG1655, 16 h, read-out: phenol concentration at which growth was totally inhibited (MIC)
molecule,measurement,setting,value
"clone 8: artificial ncRNA improving resistance to cinnamaldehyde, genome insert of SEQ ID NO: 19 (DNA AATCCCTCAATGATGCCTGGAATCGCTCTTTTA; expressed or natural sequence)",OD600,E. coli YHP05,0.32
O=CC=Cc1ccccc1 [cinnamaldehyde],OD600,E. coli YHP05 strain; 100 ug/ml cinnamaldehyde,3.08
same,OD600,E. coli YHP05 strain; 150 ug/ml cinnamaldehyde,2.74
same,OD600,E. coli YHP05 strain; 200 ug/ml cinnamaldehyde,2.25
same,OD600,E. coli YHP05 strain; 250 ug/ml cinnamaldehyde,0.341
same,OD600,E. coli YHP05 strain; 300 ug/ml cinnamaldehyde,0.091
same,OD600,E. coli YHP05 strain; 400 ug/ml cinnamaldehyde,0.083
same,OD600,E. coli YHP05 strain; 500 ug/ml cinnamaldehyde,0.062
same,MIC,"E. coli YHP05 strain; Escherichia coli, YHP05STRAIN, read-out: cinnamaldehyde concentration at which cells were not grown (MIC)",300 µg/mL
Oc1ccccc1 [phenol],MIC,E. coli MG1655 strain,20 mM
"clone 9: artificial ncRNA improving resistance to cinnamaldehyde, genome insert of SEQ ID NO: 20 (DNA GGCGCTGCATCCGCGTTATAGCCGCGCCCAGTATGACCGGGTAATGGA; expressed or natural sequence)",OD600,E. coli YHP05,0.2403
B1,OD600,E. coli YHP05,0.411
B2,OD600,E. coli YHP05,0.2757
